Assay results taken from US12029727B2, “Combinations and methods for the treatment of neuropathic pain” (priority 2016, dated 2024).

Experiments:
[1] = test system: neuropathic pain model induced by L5/L6 spinal nerve ligation (tactile allodynia); details: rat, in vivo, po
Description: Antineuropathic effect of a combination of pregabalin and alpha lipoic acid through the neuropathic pain model induced by L5/L6 spinal nerve ligation in rat was determined.
Wistar female rats with a body weight of 120-140 g were used for all experiments. Animals were kept under temperature controlled conditions (22° C.) and water and food were given ad-libitum in experimentation rooms.
Both pregabalin and alpha lipoic acid were suspended in a 0.5% carboxymethylcellulose isotonic saline solution. Individual drugs or in combination were prepared and administered just before starting the experiment.
Rats were prepared according to the method described by Kim S H, Chung J M. 1992. […]
Tactile allodynia was determined according to the previously described method by Chaplan S R, Bach F W, Pogrel J W, Chung J M, Yaksh T L. 1994. […] Paw withdrawal mechanical threshold was measured immediately after and a systemic administration of drugs was carried out. Later, paw withdrawal mechanical threshold was measured at 0.5, 1, 2, 3, 4, 5, 6, 7 and 8 hours. […]
Graphs of 50% withdrawal threshold in grams (g) in function of time (minutes) were prepared from data obtained. Area under curve was determined from these graphs through trapezoidal method and % of maximum possible effect (% MEP) was calculated using the following formula: % MEP=(Drug AUC−Neuropathic AUC)/(Sham AUC−Neuropathic AUC)×100 […]

[2] = Safety/tolerability observations in treated rats; details: 30 mg/Kg dose
Description: Wistar female rats with a body weight of 120-140 g were used for all experiments. Animals were kept under temperature controlled conditions (22° C.) and water and food were given ad-libitum in experimentation rooms. Experiments were carried out according to the guidelines on ethical issues on experimental pain research in animals (Zimmermann M. 1983. Ethical guidelines for investigations of experimental pain in conscious animals. Pain. 16:109-110).

SMILES	ED50 [1] [mg/kg]	adverse signs observed [2]
O=C(O)CCCCC1CCSS1 (stereo not drawn) [alpha lipoic acid]	57.5 ± 5.59	
CC(C)C[C@H](CN)CC(=O)O [pregabalin]	2.45 ± 0.23	sedation and motor discoordination
